Reference: US20240199612A1, “IMIDAZOPYRIDINYL INHIBITORS OF PLASMA KALLIKREIN” (SHIRE HUMAN GENETIC THERAPIES, INC., priority 2021, published 2024)

How the values were obtained:
[1] = target: human activated kallikrein enzyme (Homo sapiens, UniProt P03952); experiment: Inhibition of human activated plasma kallikrein, fluorogenic peptide substrate (PFR-AMC) assay, 500 pM enzyme format; type: biochemical; conditions: format with 500 pM activated kallikrein, 300 uM PFR-AMC, 30 min preincubation, 10 min reaction, room temperature; read-out: Primary Dose Response Assay: Average EC50
human activated kallikrein enzyme, sequence (P03952 391-638 limits assumed): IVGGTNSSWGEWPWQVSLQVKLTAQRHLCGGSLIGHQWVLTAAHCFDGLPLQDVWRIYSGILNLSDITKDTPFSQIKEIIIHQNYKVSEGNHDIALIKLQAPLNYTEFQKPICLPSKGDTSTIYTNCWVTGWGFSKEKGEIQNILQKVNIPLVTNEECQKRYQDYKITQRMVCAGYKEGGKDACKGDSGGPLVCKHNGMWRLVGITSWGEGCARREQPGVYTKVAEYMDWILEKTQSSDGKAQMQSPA
human activated kallikrein enzyme, sequence (P03952 20-390 partner limits assumed): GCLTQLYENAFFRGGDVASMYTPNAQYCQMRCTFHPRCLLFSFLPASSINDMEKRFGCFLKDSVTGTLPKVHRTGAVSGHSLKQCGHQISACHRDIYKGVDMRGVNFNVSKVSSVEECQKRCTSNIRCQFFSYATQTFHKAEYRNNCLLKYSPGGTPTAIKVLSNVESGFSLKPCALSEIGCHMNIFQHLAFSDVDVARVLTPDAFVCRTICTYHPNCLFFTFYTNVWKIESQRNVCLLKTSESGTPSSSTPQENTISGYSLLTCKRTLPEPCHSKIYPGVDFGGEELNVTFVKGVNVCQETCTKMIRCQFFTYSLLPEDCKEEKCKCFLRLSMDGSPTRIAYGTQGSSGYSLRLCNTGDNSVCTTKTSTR
Method: Inhibitory Activity of Exemplary Compounds against Plasma Kallikrein.
Compounds were evaluated for inhibition of the human activated kallikrein enzyme in two formats of an assay employing a fluorogenic peptide substrate. In one assay format, the concentrations of reagents were as follows: 20 mM Tris pH 7.5, 1 mM EDTA, 150 mM sodium chloride, 0.1% PEG-400, 0.1% Triton X-100, 500 pM activated kallikrein enzyme, 300 uM Pro-Phe-Arg-7-amido-4-methylcoumarin (PFR-AMC) substrate. Prior to reaction initiation with substrate, enzyme and inhibitors were preincubated for 30 min at room temperature. After initiation with substrate, reactions were incubated for 10 min at room temperature and fluorescence emission at 460 nm from 380 nm excitation measured with a microplate reader. In another assay format, the concentrations of reagents were as follows: 20 mM Tris pH 7.5, 1 mM EDTA, 150 mM sodium chloride, 0.1% PEG-400, 0.1% Triton X-100, 5 pM activated kallikrein enzyme, 300 uM PFR-AMC substrate. Prior to reaction initiation with substrate, enzyme and inhibitors were preincubated for 30 min at room temperature. After initiation with substrate, reactions were incubated for 18 hr at room temperature and fluorescence emission at 460 nm from 380 nm excitation measured with a microplate reader.

plasma kallikrein = target: T1, plasma kallikrein (Homo sapiens, UniProt P03952); experiment: Neat human plasma assay (contact pathway-activated plasma, FXIIa, PFR-AMC substrate); type: biochemical; conditions: sodium citrate human plasma, 78% final plasma, 10 nM human FXIIa, 100 μM PFR-AMC, room temperature
T1 construct: from tissue; host or cells: sodium citrate collected human plasma (78% final)
T1 sequence (P03952 391-638 limits assumed): as the sequence (P03952 391-638 limits assumed) above
T1 sequence (P03952 20-390 partner limits assumed): as the sequence (P03952 20-390 partner limits assumed) above
Method: Neat Human and Rat Plasma Assay
To analyze inhibition of plasma kallikrein in an ex vivo setting, the potency of compounds was measure in contact pathway-activated plasma assays. In a fluorogenic peptide substrate assay, test compounds dissolved in DMSO were added to sodium citrate collected human or rat plasma in a 96-well microplate. Alternatively, citrated plasma was collected from rats administered the compounds orally or by IV. 10 nM of human FXIIa (Enzyme Research Laboratories) diluted in PKa buffer (20 mM Tris-HCl, pH 7.5, 150 mM NaCl, 1 mM EDTA, 0.1% PEG-8000, and 0.1% Triton X-100) was added to the plasma, followed by the 100 μM of the profluorescent, synthetic plasma kallikrein substrate PFR-AMC (also diluted in PKa buffer). Final plasma concentration in the reaction was 78%. Fluorescence was immediately monitored by excitation/emission wavelengths of 360 nm/480 nm respectively over a period of 5 minutes in a microplate reader. The resulting linear increase in fluorescence emission (reflecting PKa proteolysis of PFR-AMC substrate) was fit to extract a proteolytic rate (fluorescent units over time), and this rate was subsequently plotted against compound inhibitor concentration. Resulting plots were fit to a standard 4-parameter IC50/IC90 equation to determine min/max values, IC50/90, and slope. All experimental steps were performed at room temperature.

| Structure (SMILES) | EC50 [1] [nM] | IC90 (plasma kallikrein) [nM] |
| --- | --- | --- |
| O=C(NCc1cc(Cl)ccc1-n1cnnn1)Nc1cc(NCc2cn3cc(C4CC4)ccc3n2)ccn1 [Compound I-10, 1-(5-chloro-2-(1H-tetrazol-1-yl)benzyl)-3-(4-(((6-cyclopropylimidazo[1,2-a]pyridin-2-yl)methyl)amino)pyridin-2-yl)urea] | < 5 | 2500 to 7500 |
| O=C(Nc1cc(NCc2cn3cc(C4CC4)ccc3n2)ncn1)OCc1cc(Cl)ccn1 [Compound I-26, (4-chloropyridin-2-yl)methyl (6-(((6-cyclopropylimidazo[1,2-a]pyridin-2-yl)methyl)amino)pyrimidin-4-yl)carbamate] | < 5 | ≤ 2500 |
| O=C(Nc1cc(OCc2cn3cc(C4CC4)ccc3n2)ccn1)OCc1cc(Cl)ccc1-n1cnnn1 [Compound I-12, 5-chloro-2-(1H-tetrazol-1-yl)benzyl (4-((6-cyclopropylimidazo[1,2-a]pyridin-2-yl)methoxy)pyridin-2-yl)carbamate] | < 5 | 7500 to 15000 |
| O=C(Nc1cc(NCc2cn3cc(C4CC4)ccc3n2)ncn1)OCc1cc(Cl)ccc1-n1cnnn1 [Compound I-8, 5-chloro-2-(1H-tetrazol-1-yl)benzyl (6-(((6-cyclopropylimidazo[1,2-a]pyridin-2-yl)methyl)amino)pyrimidin-4-yl)carbamate] | < 5 | ≤ 2500 |
| O=C(Nc1cc(NCc2cn3cc(C4CC4)ccc3n2)ccn1)OCc1cccc(Cl)c1 [Compound I-13, 3-chlorobenzyl (4-(((6-cyclopropylimidazo[1,2-a]pyridin-2-yl)methyl)amino)pyridin-2-yl)carbamate] | < 5 | 7500 to 15000 |
| O=C(Nc1cc(N2C[C@@H](O)C[C@@H]2c2cn3cc(C4CC4)ccc3n2)ncn1)OCc1cc(Cl)ccn1 [Compound I-28, (4-chloropyridin-2-yl)methyl (6-((2R,4S)-2-(6-cyclopropylimidazo[1,2-a]pyridin-2-yl)-4-hydroxypyrrolidin-1-yl)pyrimidin-4-yl)carbamate] | < 5 | ≤ 2500 |
